Measurements as given in PubChem BioAssay AID2060912 (Molecular Pharmacology Branch, DTP, NCI, 2025).

Tested on: HUVEC/MSC spheroids viability
Assay: Human HUVEC/MSC cell line growth inhibition [KRAS2];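 for viability, T/C: percent of DMSO vehicle control luminescence so 100% = untreated viability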
Details: for viability, T/C: stronger effect = lower value
Summary of the method: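 Spheroids of human HUVEC plus MSCs, without tumor cells, were treated with single agents and combinations. Each drug was tested in half-log steps down from near its clinical Cmax, or from 10 microM when Cmax was unknown. HUVEC and hMSC were used at passage </=5.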

[1] = curve of first compound, second compound 0.00949 µM
[2] = curve of first compound, second compound 0.03 µM
[3] = curve of first compound, second compound 0.0949 µM
[4] = curve of first compound, second compound 0.3 µM
[5] = curve of first compound, second compound 0.949 µM
[6] = curve of first compound, second compound 3 µM

CC1COCCN1c1cc(-c2ccnn2C)c2ccnc(-c3ccn[nH]3)c2n1 (stereo not drawn) + C=CC(=O)N1CCN(c2nc(OCC3CCCN3C)nc3c2CCN(c2cccc4cccc(C)c24)C3)CC1CC#N
IC50 [1]: 1210 nM | IC50 [2]: 916 nM | IC50 [3]: 635 nM | IC50 [4]: 661 nM | IC50 [5]: 362 nM | IC50 [6]: > 3000 nM | viability, T/C (second compound 0.00949 µM, first compound 0.00949 µM): 79.3% | viability, T/C (second compound 0.00949 µM, first compound 0.03 µM): 76.5% | viability, T/C (second compound 0.00949 µM, first compound 0.0949 µM): 77% | viability, T/C (second compound 0.00949 µM, first compound 0.3 µM): 77% | viability, T/C (second compound 0.00949 µM, first compound 0.949 µM): 51.9% | viability, T/C (second compound 0.00949 µM, first compound 3 µM): 42.8% | viability, T/C (second compound 0.03 µM, first compound 0.00949 µM): 87.7% | viability, T/C (second compound 0.03 µM, first compound 0.03 µM): 90.9% | viability, T/C (second compound 0.03 µM, first compound 0.0949 µM): 77.6% | viability, T/C (second compound 0.03 µM, first compound 0.3 µM): 66.6% | viability, T/C (second compound 0.03 µM, first compound 0.949 µM): 49.7% | viability, T/C (second compound 0.03 µM, first compound 3 µM): 37.9% | viability, T/C (second compound 0.0949 µM, first compound 0.00949 µM): 73.5% | viability, T/C (second compound 0.0949 µM, first compound 0.03 µM): 85.3% | viability, T/C (second compound 0.0949 µM, first compound 0.0949 µM): 70.8% | viability, T/C (second compound 0.0949 µM, first compound 0.3 µM): 69.1% | viability, T/C (second compound 0.0949 µM, first compound 0.949 µM): 39.5% | viability, T/C (second compound 0.0949 µM, first compound 3 µM): 37.8% | viability, T/C (second compound 0.3 µM, first compound 0.00949 µM): 66.8% | viability, T/C (second compound 0.3 µM, first compound 0.03 µM): 71.4% | viability, T/C (second compound 0.3 µM, first compound 0.0949 µM): 72% | viability, T/C (second compound 0.3 µM, first compound 0.3 µM): 62.6% | viability, T/C (second compound 0.3 µM, first compound 0.949 µM): 44.2% | viability, T/C (second compound 0.3 µM, first compound 3 µM): 34.8% | viability, T/C (second compound 0.949 µM, first compound 0.00949 µM): 67.7% | viability, T/C (second compound 0.949 µM, first compound 0.03 µM): 65% | viability, T/C (second compound 0.949 µM, first compound 0.0949 µM): 68% | viability, T/C (second compound 0.949 µM, first compound 0.3 µM): 51.5% | viability, T/C (second compound 0.949 µM, first compound 0.949 µM): 45% | viability, T/C (second compound 0.949 µM, first compound 3 µM): 40.1% | viability, T/C (second compound 3 µM, first compound 0.00949 µM): 81.6% | viability, T/C (second compound 3 µM, first compound 0.03 µM): 78.6% | viability, T/C (second compound 3 µM, first compound 0.0949 µM): 86% | viability, T/C (second compound 3 µM, first compound 0.3 µM): 81.2% | viability, T/C (second compound 3 µM, first compound 0.949 µM): 54.5% | viability, T/C (second compound 3 µM, first compound 3 µM): 50.4%

CC(=O)OC12COC1CC(O)C1(C)C(=O)C(O)C3=C(C)C(OC(=O)C(O)C(NC(=O)OC(C)(C)C)c4ccccc4)CC(O)(C(OC(=O)c4ccccc4)C21)C3(C)C (stereo not drawn) + CC1OCC2(CCN(c3cnc(Sc4ccnc(N)c4Cl)c(N)n3)CC2)C1N
IC50 (curve of first compound, second compound 0.0316 µM): > 3000 nM | IC50 (curve of first compound, second compound 0.1 µM): > 3000 nM | IC50 (curve of first compound, second compound 0.316 µM): > 3000 nM | IC50 (curve of first compound, second compound 1 µM): > 3000 nM | IC50 (curve of first compound, second compound 3.16 µM): > 3000 nM | IC50 (curve of first compound, second compound 10 µM): 176 nM | viability, T/C (second compound 0.0316 µM, first compound 0.00949 µM): 58% | viability, T/C (second compound 0.0316 µM, first compound 0.03 µM): 65.1% | viability, T/C (second compound 0.0316 µM, first compound 0.0949 µM): 67.3% | viability, T/C (second compound 0.0316 µM, first compound 0.3 µM): 58.4% | viability, T/C (second compound 0.0316 µM, first compound 0.949 µM): 68.1% | viability, T/C (second compound 0.0316 µM, first compound 3 µM): 73.6% | viability, T/C (second compound 0.1 µM, first compound 0.00949 µM): 67% | viability, T/C (second compound 0.1 µM, first compound 0.03 µM): 66% | viability, T/C (second compound 0.1 µM, first compound 0.0949 µM): 71.4% | viability, T/C (second compound 0.1 µM, first compound 0.3 µM): 57.9% | viability, T/C (second compound 0.1 µM, first compound 0.949 µM): 73.2% | viability, T/C (second compound 0.1 µM, first compound 3 µM): 72.5% | viability, T/C (second compound 0.316 µM, first compound 0.00949 µM): 56.1% | viability, T/C (second compound 0.316 µM, first compound 0.03 µM): 63.3% | viability, T/C (second compound 0.316 µM, first compound 0.0949 µM): 50% | viability, T/C (second compound 0.316 µM, first compound 0.3 µM): 53.6% | viability, T/C (second compound 0.316 µM, first compound 0.949 µM): 62.5% | viability, T/C (second compound 0.316 µM, first compound 3 µM): 68.4% | viability, T/C (second compound 1 µM, first compound 0.00949 µM): 67.2% | viability, T/C (second compound 1 µM, first compound 0.03 µM): 58% | viability, T/C (second compound 1 µM, first compound 0.0949 µM): 47.1% | viability, T/C (second compound 1 µM, first compound 0.3 µM): 52.1% | viability, T/C (second compound 1 µM, first compound 0.949 µM): 59% | viability, T/C (second compound 1 µM, first compound 3 µM): 58.5% | viability, T/C (second compound 3.16 µM, first compound 0.00949 µM): 49.8% | viability, T/C (second compound 3.16 µM, first compound 0.03 µM): 59.5% | viability, T/C (second compound 3.16 µM, first compound 0.0949 µM): 49.8% | viability, T/C (second compound 3.16 µM, first compound 0.3 µM): 54.2% | viability, T/C (second compound 3.16 µM, first compound 0.949 µM): 48% | viability, T/C (second compound 3.16 µM, first compound 3 µM): 56.2% | viability, T/C (second compound 10 µM, first compound 0.00949 µM): 55.6% | viability, T/C (second compound 10 µM, first compound 0.03 µM): 61.8% | viability, T/C (second compound 10 µM, first compound 0.0949 µM): 41.7% | viability, T/C (second compound 10 µM, first compound 0.3 µM): 50.3% | viability, T/C (second compound 10 µM, first compound 0.949 µM): 50.9% | viability, T/C (second compound 10 µM, first compound 3 µM): 46.7%

COC(=O)c1ccc2c(C(=Nc3ccc(N(C)C(=O)CN4CCN(C)CC4)cc3)c3ccccc3)c(O)[nH]c2c1 + C=CC(=O)N1CCN(c2nc(OCC3CCCN3C)nc3c2CCN(c2cccc4cccc(C)c24)C3)CC1CC#N
IC50 [1]: 2180 nM | IC50 [2]: 2220 nM | IC50 [3]: 2910 nM | IC50 [4]: 2810 nM | IC50 [5]: 1640 nM | IC50 [6]: 894 nM | viability, T/C (second compound 0.00949 µM, first compound 0.0316 µM): 91.3% | viability, T/C (second compound 0.00949 µM, first compound 0.1 µM): 82.5% | viability, T/C (second compound 0.00949 µM, first compound 0.316 µM): 89.5% | viability, T/C (second compound 0.00949 µM, first compound 1 µM): 57.8% | viability, T/C (second compound 0.00949 µM, first compound 3.16 µM): 45.7% | viability, T/C (second compound 0.00949 µM, first compound 10 µM): 0.43% | viability, T/C (second compound 0.03 µM, first compound 0.0316 µM): 81.1% | viability, T/C (second compound 0.03 µM, first compound 0.1 µM): 102% | viability, T/C (second compound 0.03 µM, first compound 0.316 µM): 76.4% | viability, T/C (second compound 0.03 µM, first compound 1 µM): 52.6% | viability, T/C (second compound 0.03 µM, first compound 3.16 µM): 52.6% | viability, T/C (second compound 0.03 µM, first compound 10 µM): 0.35% | viability, T/C (second compound 0.0949 µM, first compound 0.0316 µM): 76% | viability, T/C (second compound 0.0949 µM, first compound 0.1 µM): 78.3% | viability, T/C (second compound 0.0949 µM, first compound 0.316 µM): 93.3% | viability, T/C (second compound 0.0949 µM, first compound 1 µM): 68.1% | viability, T/C (second compound 0.0949 µM, first compound 3.16 µM): 49.2% | viability, T/C (second compound 0.0949 µM, first compound 10 µM): 0.37% | viability, T/C (second compound 0.3 µM, first compound 0.0316 µM): 60.5% | viability, T/C (second compound 0.3 µM, first compound 0.1 µM): 78.7% | viability, T/C (second compound 0.3 µM, first compound 0.316 µM): 78.3% | viability, T/C (second compound 0.3 µM, first compound 1 µM): 70.3% | viability, T/C (second compound 0.3 µM, first compound 3.16 µM): 47.7% | viability, T/C (second compound 0.3 µM, first compound 10 µM): 0.35% | viability, T/C (second compound 0.949 µM, first compound 0.0316 µM): 57.5% | viability, T/C (second compound 0.949 µM, first compound 0.1 µM): 73.2% | viability, T/C (second compound 0.949 µM, first compound 0.316 µM): 91.1% | viability, T/C (second compound 0.949 µM, first compound 1 µM): 55.5% | viability, T/C (second compound 0.949 µM, first compound 3.16 µM): 34.6% | viability, T/C (second compound 0.949 µM, first compound 10 µM): 0.31% | viability, T/C (second compound 3 µM, first compound 0.0316 µM): 65.2% | viability, T/C (second compound 3 µM, first compound 0.1 µM): 96.5% | viability, T/C (second compound 3 µM, first compound 0.316 µM): 84.3% | viability, T/C (second compound 3 µM, first compound 1 µM): 46.6% | viability, T/C (second compound 3 µM, first compound 3.16 µM): 0.43% | viability, T/C (second compound 3 µM, first compound 10 µM): 0.33%

CC1OCC2(CCN(c3cnc(Sc4ccnc(N)c4Cl)c(N)n3)CC2)C1N (stereo not drawn)
IC50 (compound alone, run of 05/05/2024): > 10000 nM | IC50 (curve of compound): > 10000 nM
